# Reference: patent US20220265618A1, “METHODS OF TREATING PROSTATE CANCER” (Celgene Quanticel Research, Inc., priority 2021, published 2022)
# How the values were obtained:
# [1] = test system: Neuroendocrine prostate cancer models; assay: Proliferation assay, all Neuroendocrine prostate cancer models tested (summary); format: cell-based; settings: summary over all NEPC models
# Description: (§1) Cell culture: VCaP, LNCaP, 22Rv1, DU145 and PC3 cancer cell lines were obtained from ATCC. VCaP cells were cultured in DMEM media supplemented with 8% FBS, LNCaP cells were cultured in RPMI1640 media supplemented with 10% FBS, and PC3 cells were cultured in F12 K media supplemented with 10% FBS. LNCaP_AR CRISPRi gCTR, LNCaP_AR CRISPRi gTP53/RB1, and LNCaP_AR shTP53/RB1 cells were obtained from Charles L. Sawyers lab and were cultured in RPMI1640 supplemented with 10% FBS+2 mM L-Glutamine+1 mM Sodium Pyruvate+10 mM Hepes. DKO and TKO cells were obtained from David W. Goodrich lab and were cultured in DMEM media supplemented with 2.5% charcoal-stripped FBS+5 μg/mL of insulin/transferring/selenium (ITS)+10 μg/mL of bovine pituitary extract (BPE)+10 μg/mL of epidermal growth factor+1 μg/mL of cholera toxin. DKO cells have been derived from intact mice so were cultured also in presence of 1nM R1881.
# (§2) Proliferation Assay: Cells were plated in a 384-well format and were allowed to adhere 24h before treatment. Drugs were titrated 1:3 from 10 μM to 0.1 nM with 9 doses in triplicate. Cell proliferation was measured on the day of treatment (Day 0) and on Day 3 or Day 6 or Day 14 using Cell Titer-Glo reagent (Promega) according to the manufacturer's instructions. […]
# [2] = test system: MYC gene expression in 22Rv1 cells; assay: qPCR gene expression in 22Rv1 cells: MYC; format: cell-based, human; settings: 22RV.1 cells, 48 hours
# Description: (§3) KLK3, TMPRSS2,MYC and HEXIM1 genes expression was determined by qPCR.
# DU145 cells = assay: Proliferation assay (Cell Titer-Glo), DU145 cells; format: cell-based, human; settings: 3 days (FIG. 10)
# Description: (§4) Proliferation was measured both at Day 0 and at Day 3, and percent of growth was determined using Luciferase assay.
# as §1, §2
# [3] = test system: MYC gene expression in VCaP cells; assay: qPCR gene expression in VCaP cells: MYC; format: cell-based, human; settings: 48 h
# Description: as §3
# [4] = test system: LNCaP_AR shTP53/RB1 cells; assay: Proliferation assay (Cell Titer-Glo), LNCaP_AR shTP53/RB1 cells; format: cell-based, human
# Description: (§5) Proliferation was measured both at Day 0 and at Day 14, and percent of growth was determined using Luciferase assay.
# as §1
# (§6) Proliferation Assay: Cells were plated in a 384-well format and were allowed to adhere 24h before treatment. Drugs were titrated 1:3 from 10 μM to […] with 9 doses in triplicate. Cell proliferation was measured on the day of treatment (Day 0) and on Day 3 or Day 6 or Day 14 using Cell Titer-Glo reagent (Promega) according to the manufacturer's instructions. Cell growth normalized to the DMSO vehicle control and to Day 0 was fitted by nonlinear regression using GraphPad Prism 7.03 (GraphPad Software, Inc.).
# [5] = test system: LNCaP cells overexpressing AR (LNCaP_AR); assay: Proliferation assay (Cell Titer-Glo), LNCaP_AR cells; format: cell-based, human
# Description: as §4
# (§7) Proliferation was measured both at Day 0 and at Day 6, and percent of growth was determined using Luciferase assay.
# as §5, §1, §6
# PC3 cells = assay: Proliferation assay (Cell Titer-Glo), PC3 cells; format: cell-based, human; settings: 3 days (FIG. 11)
# Description: as §4, §1, §2
# [6] = test system: HEXIM1 gene expression in 22Rv1 cells; assay: qPCR gene expression in 22Rv1 cells: HEXIM1; format: cell-based, human; settings: 22RV.1 cells, 400 nM, 48 hours
# Description: as §3
# [7] = test system: DKO cells (deleted for Pten and Rb1); assay: Proliferation assay (Cell Titer-Glo), DKO cells; format: cell-based, mouse
# Description: as §5, §1, §2
# [8] = test system: TMPRSS2 gene expression in 22Rv1 cells; assay: qPCR gene expression in 22Rv1 cells: TMPRSS2; format: cell-based, human; settings: 22RV.1 cells, 48 hours
# Description: as §3
# [9] = test system: HEXIM1 gene expression in VCaP cells; assay: qPCR gene expression in VCaP cells: HEXIM1; format: cell-based, human; settings: 48 h
# Description: as §3
# [10] = test system: TMPRSS2 gene expression in VCaP cells; assay: qPCR gene expression in VCaP cells: TMPRSS2; format: cell-based, human; settings: 400 nM, 48 h
# Description: as §3
# [11] = test system: KLK3 gene expression in VCaP cells; assay: qPCR gene expression in VCaP cells: KLK3; format: cell-based, human; settings: 400 nM, 48 h
# Description: as §3
# [12] = test system: LNCaP_AR CRISPRi guide TP53/RB1 cells; assay: Proliferation assay (Cell Titer-Glo), LNCaP_AR CRISPRi TP53/RB1 cells; format: cell-based, human
# Description: as §5, §1, §6
# LNCaP cells = assay: Proliferation assay (Cell Titer-Glo), LNCaP cells; format: cell-based, human
# Description: as §4, §7, §1, §6
# VCaP cells = assay: Proliferation assay (Cell Titer-Glo), VCaP cells; format: cell-based, human
# Description: as §4, §7
# as §1, with “DKO cells have been derived from intact mice so were cultured also in presence of 1nM R1881.” left out
# Proliferation Assay: Cells were plated in a 384-well format and were allowed to adhere 24h before treatment. […] Cell proliferation was measured on the day of treatment (Day 0) and on Day 3 or Day 6 or Day 14 using Cell Titer-Glo reagent (Promega) according to the manufacturer's instructions. […]
# 22Rv1 cells = assay: Proliferation assay (Cell Titer-Glo), 22Rv1 cells; format: cell-based; settings: Homo sapiens, 22Rv1, 72 h; 3 days (FIG. 6); read-out: IC50, proliferation of 22RV.1 cells
# Description: as §4, §1, §2
# [13] = test system: KLK3 gene expression in 22Rv1 cells; assay: qPCR gene expression in 22Rv1 cells: KLK3; format: cell-based, human; settings: 22RV.1 cells, 48 hours
# Description: as §3
# [14] = test system: TKO cells (deleted for Pten, Rb1, and Trp53); assay: Proliferation assay (Cell Titer-Glo), TKO cells; format: cell-based, mouse
# Description: as §7, §1, §2
smiles,measurement,setting,value
"Cn1cc(-c2cc(S(C)(=O)=O)ccc2OCC2CC2)c2ccccc2c1=O [Compound A, 4-[2-(cyclopropylmethoxy)-5-methylsulfonylphenyl]-2-methylisoquinolin-1-one]",reduction of cell proliferation in all Neuroendocrine prostate cancer models tested,[1],> 76%
same,MYC downregulation,[2]; 40 nM,64%
same,MYC downregulation,[2]; 400 nM,93.9%
same,reduction of DU145 proliferation,DU145 cells,76%
same,IC50,"DU145 cells; Homo sapiens, DU-145, 72 h",680 nM
same,reduction in MYC expression,[3]; 40 nM,18.9%
same,MYC downregulation,[3]; 400 nM,81.1%
same,IC50,"[4]; Homo sapiens, LNCaP/AR, treated Day 0 and Day 6, total 14 days (FIG. 8B)",60 nM
same,cell death in LNCaP_AR cells depleted for TP53 and RB1 (shRNA),[4]; summary statement,induced cell death
same,growth arrest of LNCaP_AR shTP53/RB1 cells,"[4]; treated Day 0 and Day 6, total 14 days (FIG. 8B)",100%
same,growth arrest of LNCaP_AR cells,[5]; 3 days (FIG. 4A),complete growth arrest
same,cytotoxicity in LNCaP_AR cells,"[5]; highest dose, longer treatment (6 days, FIG. 4B)",cytotoxicity
same,concentration causing cell death in LNCaP_AR cells on re-treatment,"[5]; treated Day 0 and Day 6, total 14 days (FIG. 5)",> 1 µM
same,reduction of PC3 proliferation,PC3 cells,80%
same,IC50,"PC3 cells; Homo sapiens, PC-3, 72 h",550 nM
same,HEXIM1 induction,[6],31%
same,growth arrest of DKO cells,"[7]; at 1 uM, treated Day 0 and Day 6, total 14 days (FIG. 9B)",100%
same,cytotoxic activity in DKO cells,[7]; at the highest concentrations (FIG. 9B),cytotoxic activity
same,TMPRSS2 reduction,[8]; 40 nM,93.2%
same,TMPRSS2 reduction,[8]; 400 nM,95.3%
same,HEXIM1 upregulation as compared to DMSO,[9]; 40 nM,121.1%
same,HEXIM1 upregulation as compared to DMSO,[9]; 400 nM,754%
same,TMPRSS2 downregulation as compared to DMSO,[10],26.3%
same,KLK3 downregulation as compared to DMSO,[11],80.2%
same,IC50,"[12]; Homo sapiens, LNCaP/AR, treated Day 0 and Day 6, total 14 days (FIG. 8A)",220 nM
same,cell death in LNCaP_AR cells depleted for TP53 and RB1 (CRISPRi),[12]; summary statement,induced cell death
same,growth arrest of LNCaP_AR CRISPRi guide TP53/RB1 cells,"[12]; treated Day 0 and Day 6, total 14 days (FIG. 8A)",100%
same,IC50,"LNCaP cells; Homo sapiens, LNCaP, 144 h, prolonged treatment (6 days) (FIG. 3B), read-out: half maximal inhibitory concentration (IC50), LNCaP cells",490 nM
same,growth arrest of LNCaP cells,LNCaP cells; after 3 days of treatment (FIG. 3A),100%
same,cell death in LNCaP cells,LNCaP cells; prolonged treatment (6 days),induced cell death
same,growth arrest of VCaP cell proliferation,"VCaP cells; at 0.3 μM Compound A, 3 and 6 days (FIGS. 1A-1B)",100%
same,cytotoxic effects in VCaP cells,VCaP cells; at the highest concentration (FIGS. 1A-1B),cytotoxic effects
same,IC50,22Rv1 cells,200 nM
same,KLK3 downregulation,[13]; 40 nM,98.8%
same,KLK3 downregulation,[13]; 400 nM,99.51%
same,growth arrest of TKO cells,"[14]; at 3 uM, treated Day 0 and Day 3, total 6 days (FIG. 9A)",100%
same,cytotoxic activity in TKO cells,[14]; at the highest concentrations (FIG. 9A),cytotoxic activity
